Results taken from patent US20240209022A1, “NOVEL PEPTIDE HAVING ANTI-INFLAMMATORY AND TISSUE REGENERATIVE ACTIONS” (KOREA RESEARCH INSTITUTE OF BIOSCIENCE AND BIOTECHNOLOGY, priority 2020, published 2024).

What was measured:
[1] = system: DSS-induced enteritis model; assay: DSS enteritis (inflammatory bowel disease) model; format: in vivo, C57BL/6J mice; conditions: vs PBS buffer group; for Il-6 gene expression in distal colon: RT-qPCR; for length of the colon: oral 3 days in recovery period; for body weight (weight gain rate): recovery period after DSS, oral 6 days
Method: In order to confirm the efficacy of the peptides of the present invention for preventing and treating inflammatory bowel disease, an experiment was conducted using an animal model of enteritis. As the enteritis model, enteritis was induced by dissolving DSS in drinking water at a concentration of 1.2% and then administered to 10-week-old specific pathogen free (SPF) male C57BL/6J mice through the drinking water for 6 days, and then the drinking water was replaced with water to give a recovery period. During the recovery period, PEP002, PEP003, PEP004, or PEP005 was dissolved in PBS buffer at a concentration of 4.3 μM and then orally administered to the mice by 150 μL per animal once a day at the same time, and the same volume of PBS buffer was orally administered to the control group. During the recovery period, oral administration was performed 6 times for 6 days to examine the rate of increase in body weight due to recovery from enteritis. In addition, in order to examine the length of the colon, the degree of inflammation in the colon, and the degree of recovery of the colon tissue, the test was terminated after oral administration 3 times for 3 days. At the end of the experiment, the length of the colon was measured, a part of the distal colon was rapidly cooled in liquid nitrogen, and RNA was extracted using Trizol. Reverse transcriptase was added to the obtained RNA and reacted to synthesize cDNA, and SYBR Green and primers were added to perform quantitative real-time PCR (RT-qPCR), and then the level of Il-6 gene expression was quantified. In addition, a part of the distal colon was fixed in 10% NBF at room temperature for 24 hours or more, and then embedded in paraffin to prepare a 5 μm-thick section, and the section was stained with hematoxylin and eosin (H&E). The H&E-stained tissue sections were observed under an optical microscope and the histopathological degree of enteritis was evaluated using a histologic colitis scoring system (Table 4). [table]

[2] = system: ConA-induced acute hepatitis model; assay: ConA-induced acute hepatitis model; format: in vivo, C57BL/6J mice; conditions: vs PBS buffer group; for ALT / AST: plasma, 9 hours after ConA
Method: An acute hepatitis model was induced by dissolving ConA (concanavalin A) in PBS buffer (phosphate buffered saline) at 1.5 mg/mL and injecting the solution into 8-week-old specific pathogen free (SPF) male C57BL/6J mice through the tail vein in proportion to the mouse body weight based on 100 μL/10 g. Amuc_1409 or PEP001, PEP002, PEP003, PEP004, or PEP005 was dissolved in PBS buffer at a concentration of 6.7 μM from 3 days before ConA administration, and PEP007, PEP008, PEP009, or PEP010 was dissolved in PBS buffer at a concentration of 0.2 μg/150 μL from 3 days before ConA administration, and Amuc_1409 was injected into the mouse peritoneal cavity once a day at the same time by 210 μL and PEP001 to PEP010 by 150 μL, and intraperitoneally injected additionally one time 30 minutes before ConA injection, and the experiment was terminated 9 hours after ConA intravenous injection. Into the control group, PBS buffer was intravenously injected in the same manner. At the end of the experiment 9 hours after ConA intravenous injection, blood was collected from the orbital venous plexus using a heparin-treated capillary tube, and the collected blood was immediately centrifuged at 10,000 rpm (4° C.) for 10 minutes to separate plasma and then subjected to the analysis of alanine aminotransferase (ALT) and aspartate aminotransferase (AST), which are indicators of liver damage, using an automatic blood biochemical analyzer (Beckman Coulter AU480 automatic analyzer, Beckman Coulter). The liver was harvested, a part of the liver was fixed in 10% NBF at room temperature for 24 hours or more and then embedded in paraffin to prepare a 5 μm-thick section, and the section was stained with hematoxylin and eosin (H&E).

[3] = system: C57BL/6J naturally aged mice; assay: Skin aging in naturally aged mice (skin H&E); format: in vivo, C57BL/6J mice; conditions: oral, vs PBS buffer group
Method: As an animal model of aging, 19- to 22-month old C57BL/6J naturally aged mice were used. Solid feed and water were sufficiently supplied until the day of the experiment, the environment was maintained at a temperature of 22° C. 2° C., humidity of 55%±15%, and a 12-hour light/dark cycle, and the mice were used for the experiment. Amuc_1409 and PEP001 were dissolved in PBS buffer at 10 μg/150 μL and 0.7 μg/150 μL, respectively, and then orally administered to the naturally aged mice by 150 μL per animal at the same time once a day for […], and novel tetrapeptides PEP006, PEP007, PEP008, PEP009, and PEP010 and novel tripeptides PEP011, PEP012, and PEP013 were each dissolved in PBS buffer at a concentration of 0.2 μg/150 μL and then orally administered to the naturally aged mice by 150 μL per animal at the same time once a day for 10 weeks. To the control group, PBS buffer was orally administered in the same manner.
On the day to be the 10th week of administration, a part of the tissue was excised from the back of the mouse and fixed in 10% formalin for 24 hours or more for histopathological analysis.
The fixed skin tissue was embedded in paraffin to prepare a 5 μm-thick section, and the skin section was H&E-stained with hematoxylin and eosin to analyze the skin epidermis thickness and the number of hair follicles.

small intestine organoid = assay: Small intestine organoid sprouting; format: cell-based, C57BL/6J mice; conditions: 16 nM on days 0, 2, 4; day 5 of culture; vs PBS buffer
Method: In order to establish a small intestine organoid model, the small intestine of 15-week-old male C57BL/6J mice was cut longitudinally from the proximal end to the distal end, and cut transversely into about 5 mm long pieces. The small intestine tissue thus obtained was washed with refrigerated PBS containing 1% penicillin. Thereafter, the washed small intestine tissue was treated with dissociation buffer and filtered through a cell strainer to isolate crypts. The isolated crypt was cultured in Matrigel and Organoid Growth Medium (Intesticult™) mixed at a ratio of 1:1, Matrigel was solidified at 37° C. for 20 minutes in a 12 well plate, and then medium (500 μL/well) was added. The medium was replaced after 4 days, and subculture was performed on day 7.
For novel peptide screening, organoids 3D cultured in medium and Matrigel support were dispensed into 3 wells per group using a 12-well plate and 50 organoids per well. On days 0, 2, and 4 of culture, the organoids were treated with novel tetrapeptides PEP006, PEP007, PEP008, PEP009, and PEP010 and novel tripeptides PEP011, PEP012, and PEP013 at a concentration of 16 nM as described above, and the number of lobes of sprouted organoids on day 5 of culture was examined and analyzed for comparison. The control group was treated with PBS buffer in the same manner.

Molecule	Il-6 gene expression in distal colon [1]	length of the colon [1]	body weight (weight gain rate) [1]	degree of crypt damage (H&E) [1]	degree or extent of intestinal inflammation (H&E) [1]	ALT [2]	AST [2]	number of hair follicles [3]	thickness of the skin epidermis [3]	number of lobes of sprouted organoids (small intestine organoid)	inflammatory cells infiltration into the liver and necrosis in the liver parenchyma (H&E) [2]
AVSSI (PEP002)	significantly decreased	significantly increased	tended to increase	significantly decrease	decreased	significantly decreased	tended to decrease				
GAY [PEP005]	significantly decreased	significantly increased	significantly increased	significantly decrease	decreased	decreased close to a significant level	tended to decrease				
AGS [PEP012]								tended to increase	significantly increased	significantly increased	
VGAY (PEP010)						significantly decreased	decreased close to a significant level	tended to increase	significantly increased	significantly increased	
KGAY (PEP003)	significantly decreased	tended to increase	tended to increase	significantly decrease	decreased	significantly decreased	tended to decrease				
IGAY (PEP008)						tended to decrease		tended to increase	significantly increased	significantly increased	
SGAY (PEP009)						tended to decrease	tended to decrease	tended to increase	significantly increased	significantly increased	
AQS [PEP011]									significantly increased	significantly increased	
AIS [PEP013]								tended to increase	increased close to a significant level	significantly increased	
AGAY (PEP006)								tended to increase	significantly increased	significantly increased	
AVSSIKGAY (PEP001)						decreased close to a significant level	decreased close to a significant level		significantly increased		
AVS (AVSSIKGAY) [PEP004]	significantly decreased	significantly increased	significantly increased	significantly decrease	decreased	significantly decreased	tended to decrease				
RGAY (PEP007)						significantly decreased	tended to decrease	tended to increase	significantly increased	significantly increased	
Amuc_1409: SEQ ID NO: 15, functional fragment obtained by eliminating the leader sequence from SEQ ID NO: 14; protein derived from Akkermansia muciniphila (protein, Amuc_1409_fragment, protein derived from Akkermansia muciniphila) IPESSVPAAAVSSIKGAYPNAGPIEWDSEMHGMERIYEAEFRINGFQFDVKIAPDGKIVRIKEEIAASSLPEAVRASVLKRYPGCRIKEAEKITEGELVRYKVEVADSRDDYDVLIAPDGNILHVDR						significantly decreased	significantly decreased		significantly increased		markedly reduced
